Assays:
CYP2E1 = target: T1, CYP2E1 (Homo sapiens, UniProt P05181); experiment: Chlorzoxazone 6-hydroxylation in human liver microsomes; assay type: in vitro ADME; details: 100 μM; 100 μM chlorzoxazone
T1 construct: Standard incubation mixtures of 0.5 ml contained microsomal protein (0.1–0.5 mg); from tissue; host or cells: pooled human liver microsomes (ten donors)

CYP2A6 = target: T2, CYP2A6 (Homo sapiens, UniProt P11509); experiment: Coumarin 7-hydroxylation in human liver microsomes; assay type: in vitro ADME; details: 100 μM; 2 μM coumarin
T2 construct: Standard incubation mixtures of 0.5 ml contained microsomal protein (0.1–0.5 mg); from tissue; host or cells: pooled human liver microsomes (ten donors)
T2 sequence (P11509 1-494): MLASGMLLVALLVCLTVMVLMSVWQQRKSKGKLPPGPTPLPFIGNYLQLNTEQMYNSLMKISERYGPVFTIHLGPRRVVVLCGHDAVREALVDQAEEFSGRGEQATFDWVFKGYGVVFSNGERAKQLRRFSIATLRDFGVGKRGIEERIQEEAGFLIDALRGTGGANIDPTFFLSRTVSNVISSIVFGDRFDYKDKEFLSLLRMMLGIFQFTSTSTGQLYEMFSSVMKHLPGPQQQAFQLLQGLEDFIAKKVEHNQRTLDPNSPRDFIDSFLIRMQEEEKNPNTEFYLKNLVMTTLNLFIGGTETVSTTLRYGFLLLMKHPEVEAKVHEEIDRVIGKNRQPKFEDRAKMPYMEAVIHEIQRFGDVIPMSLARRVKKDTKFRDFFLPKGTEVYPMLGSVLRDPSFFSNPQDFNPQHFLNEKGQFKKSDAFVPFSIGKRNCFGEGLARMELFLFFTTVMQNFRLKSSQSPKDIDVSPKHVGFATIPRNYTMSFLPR

T1 sequence (P05181 whole entry): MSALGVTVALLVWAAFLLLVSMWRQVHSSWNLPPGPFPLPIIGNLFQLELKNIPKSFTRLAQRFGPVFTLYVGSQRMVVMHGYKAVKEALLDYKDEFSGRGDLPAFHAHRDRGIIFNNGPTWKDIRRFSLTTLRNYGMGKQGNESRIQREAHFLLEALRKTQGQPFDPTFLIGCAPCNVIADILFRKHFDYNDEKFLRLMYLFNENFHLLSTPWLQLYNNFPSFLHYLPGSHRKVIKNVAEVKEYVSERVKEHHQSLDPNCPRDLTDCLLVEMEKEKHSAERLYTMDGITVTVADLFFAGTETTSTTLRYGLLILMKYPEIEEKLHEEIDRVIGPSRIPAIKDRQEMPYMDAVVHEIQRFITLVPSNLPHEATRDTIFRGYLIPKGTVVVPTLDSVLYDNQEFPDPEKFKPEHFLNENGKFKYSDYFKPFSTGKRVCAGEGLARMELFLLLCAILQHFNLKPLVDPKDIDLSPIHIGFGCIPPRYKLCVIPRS

CCN(CC)C(=S)S [Diethyldithiocarbamate, diethyldithiocarbamate]
Percent of Control (CYP2E1): 55.0% of Control
Percent of Control (CYP2A6): 38.2% of Control
